Structures are written as SMILES. “Also recorded” adds a separate entry of the source.

We go through three compounds from US11273193B2, “Synergistic composition as a promoter of autophagy” (GIULIANI S.P.A., priority 2017, dated 2022).

Common to all, as to format: cell-based, human
One assay deals with SQSTM1/p62. Description: Live fluorescent microscopy of p62-RFP dots (autophagy-mediated p62 degradation) in U2OS cells. The following applies: U2OS cells transduced with p62-RFP; FIG. 2. The procedure: U2OS cells were seeded 3000 cells/well in 48-well plates, No. 1.5 Uncoated Coverslip, 6 mm glass diameter, previously coated with gelatin solution, and transduced with 0.2 ul di baculovirus/10 000 cells containing a chimeric protein p62-Red Fluorescent Protein (p62-RFP). At 48 h post-transduction the cells were treated with Spermidine, Biotin, Galeopsis, or vehicle and monitored for 24 h using NIKON Live Cell Imaging microscopy.
Because LC3-RFP dots may also accumulate upon a blockade of the autophagic flux, the autophagy-dependent degradation of the SQSTM1/p62 protein (Klionsky D J, Abdelmohsen K, Abe A, Abedin M J, Abeliovich H, Acevedo Arozena A, et al. Guidelines for the use and interpretation of assays for monitoring autophagy. Autophagy. 2016; 12(1):1-222) was thus monitored. p62 served as a link between LC3 and ubiquitinated substrates (Pankiv S, Clausen T H, Lamark T, Brech A, Bruun J-A, Outzen H, et al. p62/SQSTM1 binds directly to Atg8/LC3 to facilitate degradation of ubiquitinated protein aggregates by autophagy. Journal of Biological Chemistry. […]
Accordingly, the effects of biotin and Galeopsis on autophagy-mediated p62 degradation was evaluated analyzing the number of p62-RFP autophagosomes by live fluorescent microscopy. […] Then, p62 fluorescent dots were monitored upon addition of biotin, Galeopsis, spermidine or vehicle.

In another assay the test system is p62/SQSTM1. Description: Immunoblot analysis of p62 protein levels in U2OS cells. The following applies: immunoblot normalized to GAPDH, spermidine 0.5 μM, biotin 19.91 ng/ml, Galeopsis 7.9 ng/ml. The procedure:
U2OS cells were grown to 80% confluence in Dulbecco Modified Eagle's Medium High Glucose (4.5 g/ID-Glucose) containing 4 mM L-glutamine, 10% fetal bovine serum (FBS) and treated with Spermidine (Lot. 2010112716), Galeopsis segetum (IDN 6781), Biotin (Lot. 2014124160) or their combinations. Protein samples were extracted in RIPA buffer as previously reported (De Mei C, Ercolani L, Parodi C, Veronesi M, Vecchio C L, Bottegoni G, et al. Dual inhibition of REV-ERBβ and autophagy as a novel pharmacological approach to induce cytotoxicity in cancer cells. Oncogene. 2015; 34(20):2597-608). p62/SQSTM1 and GAPDH levels were analyzed with anti-p62/SQSTM1 and anti-GADPH specific antibodies. Immunoblot experiments were performed in TBS-T buffer containing 5% bovine serum albumin (BSA). […] and anti-GAPDH antibodies were diluted 1:1000 and 1:50000, respectively. Complementary HPR-conjugated secondary antibodies were diluted 1:10000. Upon reaction with ECL Western blotting detection reagent, chemiluminescent signals were acquired with a LAS-4000 luminescent image analyzer and optical density of specific band signal was calculated with Photoshop image analysis software. GAPDH was adopted as a loading control and GAPDH signals were used to normalize p62 protein levels among different samples.
Immunoblots were repeated at least 4 times in order to express value as mean±SEM. […]
Background: A western blot detects proteins with antibodies after separation by electrophoresis.

Another assay deals with LC3. Description: Live fluorescent microscopy of LC3-RFP dots (autophagosome accumulation) in U2OS cells. The following applies: U2OS cells transduced with LC3-RFP, 6 h; biotin 200 ng/ml, Galeopsis dry extract 100 ng/ml, spermidine 10 μM; FIG. 1. The text has this:
In order to evaluate whether biotin and/or Galeopsis segetum extract may affect autophagy, the inventors monitored the accumulation of autophagosome in cultured U2OS cells by live fluorescent microscopy (Klionsky D J, Abdelmohsen K, Abe A, Abedin M J, Abeliovich H, Acevedo Arozena A, et al. Guidelines for the use and interpretation of assays for monitoring autophagy. Autophagy. 2016; 12(1):1-222). Thus, cells were trasduced with construct containing the autophagy protein, LC3, fused with a Red Fluorescent Protein (RFP). Then, accumulation of fluorescent LC3 dots upon addition of biotin (200 ng/ml) or Galeopsis dry extract (100 ng/ml) was monitored by acquiring images every 30 min for 6 h. Spermidine (10 μM) was adopted as a positive control of an autophagy inducer compound (Pietrocola F, Lachkar S, Enot D, Niso-Santano M, Bravo-San Pedro J, Sica V, et al. Spermidine induces autophagy by inhibiting the acetyltransferase EP300. Cell Death & Differentiation. 2015; 22(3):509-16).
Both biotin and Galeopsis segetum dry extract produced a similar accumulation of LC3-red dots.

Another assay concerns SQSTM1. Description: Immunoblot of SQSTM1 in U2OS cells, Example 14. The settings on record: 100 μM, 6 h, normalized by ACTIN, FIG. 3. Here is the method: (§1) The levels of lipidated LC3 and SQSTM1 in human U2OS cells treated with equimolar doses of N1-methylspermidine and spermidine were evaluated. […] Specifically cultured human U2OS cells were treated 6 h with vehicle or equimolar doses of spermidine and N^1-methylspermidine (100 μM). The levels of lipidated LC3 (LC3-II) and SQSTM1 were then assessed by immunoblotting analysis as in example 8 with specific antibody. Actin signals were adopted as a loading control. Densitometry analysis of protein signals is reported as relative protein levels normalized by ACTIN. Vehicle sample value was set to 1. Shown as mean±SEM., n=3. *P<0.05 and **P<0.01, compounds versus vehicle.

The subject of a further assay is lipidated LC3 (LC3-II). Description: Immunoblot of lipidated LC3 (LC3-II) in U2OS cells, Example 14. The settings on record: 100 μM, 6 h, normalized by ACTIN, FIG. 3. The procedure: as §1

Turning to `O=C(O)CCCC[C@@H]1SC[C@@H]2NC(=O)N[C@@H]21` [Biotin, 5-[(3aS,4S,6aR)-2-oxohexahydro-1H-thieno[3,4-d]imidazole-4-yl]pentanoic acid], the “reduction of p62-RFP fluorescent dots / signals versus vehicle” value in the assay on SQSTM1/p62 is reported as “drastic reduction of p62-RFP dots; also recorded: strong reduction of p62 fluorescent signals”. The “Percentage of p62 reduction versus vehicle (% ± SEM)” value in the assay on p62/SQSTM1 stood at 21 ± 1.5%. In addition, the “accumulation of fluorescent LC3 dots (autophagosomes)” value in the assay on LC3 is listed as “marked accumulation of fluorescent LC3 dots”.
Take `CNCCCNCCCCN` [N1-methylspermidine]: in the assay with SQSTM1, the “autophagy-mediated degradation of SQSTM1 compared with vehicle” value was “stimulated autophagy-mediated degradation of SQSTM1”. Besides, in the assay on lipidated LC3 (LC3-II), the “levels of the lipidated LC3-II form compared with vehicle” value is “increased the levels of the lipidated LC3-II form”.
Consider `NCCCCNCCCN` [Spermidine, N′-(3-aminopropyl)butane-1,4-diamine], for which the “reduction of p62-RFP fluorescent dots / signals versus vehicle” value in the assay on SQSTM1/p62 was “markedly reduced p62 fluorescent dots and fluorescent signals”. For the same compound, the “Percentage of p62 reduction versus vehicle (% ± SEM)” value in the assay with p62/SQSTM1 came to 5 ± 0.11%. Further, the “autophagy-mediated degradation of SQSTM1 compared with vehicle” value in the assay with SQSTM1 is listed as “stimulated autophagy-mediated degradation of SQSTM1”. Further, in the assay with lipidated LC3 (LC3-II), the “levels of the lipidated LC3-II form compared with vehicle” value is on record as “increased the levels of the lipidated LC3-II form”. In the assay with LC3, the “accumulation of fluorescent LC3 dots (autophagosomes)” value is “marked accumulation of LC3 fluorescent dots”.
